Assay results published in PMC10714399, “Open Source Antibiotics: Simple Diarylimidazoles Are Potent against Methicillin-Resistant Staphylococcus aureus” (ACS Infectious Diseases, 2023).
In brackets after ≈: the same amount, converted by molar mass.

Tested on: Staphylococcus aureus NCTC 13373 (mecA-positive; methicillin-resistant)
Assay: In vitro antibacterial activity, MIC (UCL School of Pharmacy assay), MRSA
Type: cell-based
Details: Staphylococcus aureus, UCL; read-out: MRSA MIC (UCL)
Summary of the method: (§1)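 Each organism was taken from overnight tryptone soya agar, suspended in PBS at A600 0.1, diluted 1:100 in isosensitest broth and added to serially diluted compound (32 to 0.03 μg/mL).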

Row | MIC | Compound
1 | 2 µg/mL (≈ 5.55 µM) | CC(C)CN(c1ccc(F)cc1)c1c(-c2ccccn2)nc2ccccn12 [OSA_000983]
2 | 8 µg/mL (≈ 23.1 µM) | Clc1ccn2c(-c3ccc4occc4c3)c(-c3ccccn3)nc2c1 [OSA_000985]
3 | > 32 µg/mL | Fc1cc(-c2c(-c3ccccn3)nc3ccccn23)ccn1 [OSA_000986]
4 | > 32 µg/mL | NC(=O)c1ccc(-n2c(-c3ccccn3)nc3ccccc32)cc1 [OSA_000989]
5 | > 32 µg/mL | N#Cc1ccc(-n2c(-c3ccccn3)nc3ccccc32)cc1 [OSA_000990]
6 | > 32 µg/mL | c1ccc(-c2nc3ccccc3n2-c2ccc3occc3c2)nc1 [OSA_000991]
7 | > 32 µg/mL | c1ccc(-n2c(-c3ccccn3)nc3ccccc32)cc1 [OSA_000992]

Tested on: S. aureus ATCC 25923 (methicillin-susceptible)
Assay: In vitro antibacterial activity, MIC (UCL), MSSA
Type: cell-based, Staphylococcus aureus
Details: Staphylococcus aureus; read-out: MSSA MIC (UCL)
Summary of the method: as §1

Row | MIC | Compound
8 | 4 µg/mL (≈ 11.1 µM) | CC(C)CN(c1ccc(F)cc1)c1c(-c2ccccn2)nc2ccccn12 [OSA_000983]
9 | 8 µg/mL (≈ 23.1 µM) | Clc1ccn2c(-c3ccc4occc4c3)c(-c3ccccn3)nc2c1 [OSA_000985]
10 | > 32 µg/mL | Fc1cc(-c2c(-c3ccccn3)nc3ccccn23)ccn1 [OSA_000986]
11 | > 32 µg/mL | NC(=O)c1ccc(-n2c(-c3ccccn3)nc3ccccc32)cc1 [OSA_000989]
12 | > 32 µg/mL | N#Cc1ccc(-n2c(-c3ccccn3)nc3ccccc32)cc1 [OSA_000990]
13 | > 32 µg/mL | c1ccc(-c2nc3ccccc3n2-c2ccc3occc3c2)nc1 [OSA_000991]
14 | > 32 µg/mL | c1ccc(-n2c(-c3ccccn3)nc3ccccc32)cc1 [OSA_000992]

Tested on: Enterococcus faecalis ATCC 51299 (vanA-positive; vancomycin-resistant)
Assay: In vitro antibacterial activity, MIC (UCL), VRE
Type: cell-based
Details: read-out: VRE MIC (UCL)
Method: Staphylococcus aureus NCTC 13373 (mecA-positive; methicillin-resistant, NCTC 13373) was supplied by the National Collection of Type Cultures (NCTC), Public Health England, United Kingdom. Other organisms, S. aureus ATCC 25923 (methicillin-susceptible) and Enterococcus faecalis ATCC 51299 (vanA-positive; vancomycin-resistant), were obtained from the American Type Culture Collection (ATCC) via LGC Standards, UK. A suspension of each organism was prepared from an overnight plate culture (tryptone soya agar) in phosphate-buffered saline (PBS) and adjusted to an absorbance reading at 600 nm of 0.1, which is approximately equivalent to 1 × 10^8 colony-forming units (CFU) per mL. The cultures were further diluted 1:100 in isosensitest broth (Oxoid, United Kingdom) before 100 μL was used to inoculate each well of a 96-well plate that contained diluted samples of the OSA series. Compounds were evaluated over a 2-fold dilution range from 32 to 0.03 μg/mL. Stocks of the samples were prepared in 100% DMSO at […] before being diluted in isosenstitest broth. The highest concentration of DMSO present was 2%, which has been previously shown not to inhibit the growth of the microorganisms (data not shown). […] Vancomycin was used as a quality control compound.

Row | MIC | Compound
15 | 8 µg/mL (≈ 22.2 µM) | CC(C)CN(c1ccc(F)cc1)c1c(-c2ccccn2)nc2ccccn12 [OSA_000983]
16 | 16 µg/mL (≈ 46.3 µM) | Clc1ccn2c(-c3ccc4occc4c3)c(-c3ccccn3)nc2c1 [OSA_000985]
17 | > 32 µg/mL | Fc1cc(-c2c(-c3ccccn3)nc3ccccn23)ccn1 [OSA_000986]
18 | > 32 µg/mL | NC(=O)c1ccc(-n2c(-c3ccccn3)nc3ccccc32)cc1 [OSA_000989]
19 | > 32 µg/mL | N#Cc1ccc(-n2c(-c3ccccn3)nc3ccccc32)cc1 [OSA_000990]
20 | > 32 µg/mL | c1ccc(-c2nc3ccccc3n2-c2ccc3occc3c2)nc1 [OSA_000991]
21 | > 32 µg/mL | c1ccc(-n2c(-c3ccccn3)nc3ccccc32)cc1 [OSA_000992]

Tested on: VSE
Assay: In vitro antibacterial activity, MIC, VSE
Type: cell-based
Details: read-out: VSE MIC (UCL)

Row | MIC | Compound
22 | 16 µg/mL (≈ 46.3 µM) | Clc1ccn2c(-c3ccc4occc4c3)c(-c3ccccn3)nc2c1 [OSA_000985]
23 | > 32 µg/mL | Fc1cc(-c2c(-c3ccccn3)nc3ccccn23)ccn1 [OSA_000986]
24 | > 32 µg/mL | NC(=O)c1ccc(-n2c(-c3ccccn3)nc3ccccc32)cc1 [OSA_000989]
25 | > 32 µg/mL | N#Cc1ccc(-n2c(-c3ccccn3)nc3ccccc32)cc1 [OSA_000990]
26 | > 32 µg/mL | c1ccc(-c2nc3ccccc3n2-c2ccc3occc3c2)nc1 [OSA_000991]
27 | > 32 µg/mL | c1ccc(-n2c(-c3ccccn3)nc3ccccc32)cc1 [OSA_000992]

Tested on: not listed separately
Assay: Aqueous solubility
Type: physicochemical
Details: NEU
Text: To guide our initial SAR exploration work, we obtained liver microsomal intrinsic clearance data for 5 of the 18 compounds assayed by CO-ADD (Supporting Information - CDCO Report and Supporting Information - Biology). We then acquired intrinsic clearance (CLint), plasma protein binding (PPB), and solubility data on further compounds throughout the SAR campaign (Supporting Information - Biology, Tables S3 and S4). […] The more polar compounds (lower LogD) had reduced PPB and were more metabolically stable.
(§2) Table S4. ADME and Pharmacokinetics: compounds only appearing in the Supplementary […]
(§3) MRSA Aqueous HLM CLint Rat Hep CLint
(§4) Cmpd MIC Solubility Human PPB (%) (µL/min/mg (µL/min/10x6 LogD7.4
(§5) (µg/mL) (µM) protein) cells)
(§6) ADME and toxicity for compounds were measured according to procedures outlined in the manuscript submitted in parallel to this one;2 other procedures were used for those compounds analysed by Monash University (in vitro ADME) or UCL (toxicity), both described in the main

Row | Aqueous Solubility (NEU) | Compound
28 | 8 µM | CC(C)CN(c1ccc(F)cc1)c1c(-c2ccccn2)nc2ccccn12 [OSA_000983]

Tested on: not listed separately
Assay: Human plasma protein binding (PPB)
Type: in vitro ADME
Details: human, plasma, human plasma, NEU; read-out: Human PPB (NEU) (converted)
Text: (§7) To guide our initial SAR exploration work, we obtained liver microsomal intrinsic clearance data for 5 of the 18 compounds assayed by CO-ADD (Supporting Information - CDCO Report and Supporting Information - Biology). We then acquired intrinsic clearance (CLint), plasma protein binding (PPB), and solubility data on further compounds throughout the SAR campaign (Supporting Information - Biology, Tables S3 and S4).
as §2, §3, §4, §5, §6

Row | fraction unbound | Compound
29 | 0.0042 | CC(C)CN(c1ccc(F)cc1)c1c(-c2ccccn2)nc2ccccn12 [OSA_000983]

Tested on: not listed separately
Assay: Human liver microsome intrinsic clearance
Type: in vitro ADME
Details: human liver microsomes, NEU
Text: as §7, §2, §3, §4, §5, §6

Row | HLM CLint (NEU) | Compound
30 | 58.8 uL/min/mg protein | CC(C)CN(c1ccc(F)cc1)c1c(-c2ccccn2)nc2ccccn12 [OSA_000983]

Tested on: not listed separately
Assay: Rat hepatocyte intrinsic clearance
Type: in vitro ADME
Details: rat hepatocytes, NEU
Text: as §7, §2, §3, §4, §5, §6

Row | Rat Hep CLint (NEU) | Compound
31 | 234 uL/min/10x6 cells | CC(C)CN(c1ccc(F)cc1)c1c(-c2ccccn2)nc2ccccn12 [OSA_000983]

Tested on: MRC-5SV2 (human lung fibroblast cell line)
Assay: Toxicity against MRC-5SV2
Type: cell-based
Details: MRC5 cells
Method: as §6

Row | Compound | MRC5 TC50
32 | CC(C)CN(c1ccc(F)cc1)c1c(-c2ccccn2)nc2ccccn12 [OSA_000983] | 54 µM
33 | NC(=O)c1ccc(-n2c(-c3ccccn3)nc3ccccc32)cc1 [OSA_000989] | 64 µM
34 | N#Cc1ccc(-n2c(-c3ccccn3)nc3ccccc32)cc1 [OSA_000990] | 64 µM
35 | c1ccc(-c2nc3ccccc3n2-c2ccc3occc3c2)nc1 [OSA_000991] | 64 µM
36 | c1ccc(-n2c(-c3ccccn3)nc3ccccc32)cc1 [OSA_000992] | 64 µM

Tested on: PMM (primary mouse macrophages)
Assay: Toxicity against PMM
Type: cell-based
Details: PMM
Method: as §6

Row | Compound | PMM TC50
37 | CC(C)CN(c1ccc(F)cc1)c1c(-c2ccccn2)nc2ccccn12 [OSA_000983] | 23 µM
38 | NC(=O)c1ccc(-n2c(-c3ccccn3)nc3ccccc32)cc1 [OSA_000989] | 64 µM
39 | N#Cc1ccc(-n2c(-c3ccccn3)nc3ccccc32)cc1 [OSA_000990] | 64 µM
40 | c1ccc(-c2nc3ccccc3n2-c2ccc3occc3c2)nc1 [OSA_000991] | 38.63 µM
41 | c1ccc(-n2c(-c3ccccn3)nc3ccccc32)cc1 [OSA_000992] | 64 µM
